Experimental data as given in patent US20180353461A1, “USE OF CANNABINOIDS AS CERAMIDE-GENERATING ANTICANCER AGENTS IN TUMORS OF THE HEMATOPOIETIC AND LYMPHOID TISSUES” (priority 2014, published 2018).

Experiments:
[1] = system: myeloma plasma cells (MPCs); assay: Ex vivo viability of myeloma plasma cells from bone marrow of MM patients (flow cytometry, 7-AAD); assay type: cell-based, human
From the text: Human multiple myeloma cell lines MM1.S, MM1.R, RPMI-8226 (RPMI) and U266 were purchased from American Type Culture Collection [(ATCC), LGC Standards, Manassas, USA]. Human primary cells were obtained from MM patients' bone marrow (BM) and healthy donors' peripheral blood (PB). PB samples were collected from buffy coats and leukapheresis products, previously mobilized with granulocyte colony stimulating factor (G-CSF). Hematopoietic progenitor cells (CD34+) were isolated from leukaphesesis samples, and B (CD19+) and T (CD3+) lymphocytes from buffy coats by positive immunomagnetic separation in the AutoMACS pro separator (Miltenyi Biotec, Bergisch Gladbach, Germany). For this purpose CD34-, CD19- and CD3-MACS microbead Human Kit (Miltenyi Biotec, Bergisch Gladbach, Germany). The purity of all isolated cells was higher than 95% in all cases. […]
Further, cell viability of bone marrow cell populations from patients was assessed by flow cytometry using 7-amino-actinomycin D [(7-AAD), BD Biosciences] together with a combination of monoclonal antibodies against myeloma-associated antigens (anti-CD56-APC, anti-CD45-Pacific Blue, and anti-CD38-APC-H7 [BD Biosciences]) and antibodies to discriminate the granulomonocytic (anti-CD64-FITC) and lymphocytic (anti-CD45-Pacific Blue) populations. […] Fluorescent intensity was quantified and analyzed using Infinicyt™ Software (Cytognos, Salamanca, Spain). […]

[2] = system: MM cell lines MM1.S, MM1.R, RPMI-8226 (RPMI) and U266; assay: Cell viability of MM cell lines (MTT / WST-8 assay); assay type: cell-based, human; conditions: 18 h; for cell viability of all MM cell lines tested as compared to untreated control cells: WIN-55 0.5-50 uM, JWH-133 0.05-1 mM
From the text: Human multiple myeloma cell lines MM1.S, MM1.R, RPMI-8226 (RPMI) and U266 were purchased from American Type Culture Collection [(ATCC), LGC Standards, Manassas, USA]. Human primary cells were obtained from MM patients' bone marrow (BM) and healthy donors' peripheral blood (PB). PB samples were collected from buffy coats and leukapheresis products, previously mobilized with granulocyte colony stimulating factor (G-CSF). Hematopoietic progenitor cells (CD34+) were isolated from leukaphesesis samples, and B (CD19+) and T (CD3+) lymphocytes from buffy coats by positive immunomagnetic separation in the AutoMACS pro separator (Miltenyi Biotec, Bergisch Gladbach, Germany). For this purpose CD34-, CD19- and CD3-MACS microbead Human Kit (Miltenyi Biotec, Bergisch Gladbach, Germany). The purity of all isolated cells was higher than 95% in all cases. BM samples were obtained from five MM patients. In all cases, BM plasma cell infiltration was greater than 30%. The different cell subpopuplations from MM patients BM were not separated, but they were identified by flow cytometry using a suitable combination of antibodies: anti-CD64-FITC, anti-CD34-PE, anti-CD56-APC, anti-CD38-APC-H7, and anti-CD45-Pacific Blue (BD Biosciences, San Jose, Calif.).
Except if otherwise indicated, for the viability assays primary cells were incubated 18 hours, with vehicle (with <0.15% DMSO) or cannabinoid. Meanwhile, the time course assays cells were performed at 0, 2, 6, 18 and 24 h. For the analysis of SPT activity, cells were co-incubated for the first 6 hours with the SPT inhibitor, myriocin, and the cannabinoid, WIN-55 or JWH-133.
The working concentrations of cannabinoids were determined by dose-response curves (data not shown) and selected within the linear range between observed safe and hazardous levels. […]
Cell viability of cell lines and CD34+, CD19+ and CD3+ cells was measured using the Cell Counting Kit-8 (Dojindo Molecular Technologies, Gaithersburg, Md.). This assay is based on the reduction of salt WST-8 by a mitochondrial dehydrogenase in viable cells, resulting in a colored formazan product that can be measured spectrometrically at 450 nm. […] After treatment, 10 ul salt WST-8 [2-(4-lodophenyl)-3-(4-nitrophenyl)-5-(2,4-disulfophenyl)-2H-tetrazolium] was added to each well and incubated for an additional 2 h at 37° C., and then the absorbance of generated formazan was measured in a plate reader Multiskan™ Go Microplate (Thermo Fisher Scientific, Waltham, Mass., USA).
Firstly, we assessed the effect of cannabinoids WIN-55 and JWH-133 on cell viability. To this end, the cells were treated with increasing concentrations of cannabinoids, WIN-55 (0.5-50 uM) and JWH-133 (0.05-1 mM), for 18, 48 and 96 hours, and viability was analyzed by MTT assays and flow cytometry. […]

blasts from AML patients = assay: Cell viability of blasts from AML patients (MTT); assay type: cell-based, human
B-cells (CD19+) = assay: Cell viability of B-cells (MTT); assay type: cell-based, human
U266 cells = assay: MM xenograft (U266 cells, subcutaneous) in NSG mice; assay type: in vivo; conditions: 5 mg/kg WIN-55,212-2 intraperitoneally every 24 h or 48 h
Procedure: NOD/scid/IL-2R gammae null (NSG) mice were purchased from Charles River Laboratories International (L'Arbresle, France) and maintained with food and water ad libitum, under specific pathogen-free conditions. When mice were 8-9 weeks old, human tumor xenografts were induced by subcutaneous inoculation in suprascapular area of MM cell line U266 cells. To establish tumor, 5×10e6 cells were resuspended in 100 ul RPMI medium without serum and 100 ul of Matrigel (BD Biosciences). To easy visualization the hair was trimmed from the site of inoculation. Closely second week following implantation, when tumors became palpable (>0.5 cm), mice were randomly assigned to the following groups (10 mice per group): group 1 received intraperitoneally 5 mg/kg WIN-55,212-2 every 24 h, group 2 received the treatment every 48 hl and group 3 received vehicle. […] Tumor growth was assessed three times each week following tumor implantation. Two bisecting diameters of each tumor were measured with calipers, and the volume was calculated using the formula length x (width) e2×0.4 mm3. […]
The administration with cannabinoids inhibits remarkably the growth of tumor in vivo. Finally, we analyzed the anti-tumor effect of the cannabinoids in vivo, using a model of human MM xenografted in immunodeficient mice NOD/SCID. […]

| Compound | viability of MPCs ([1]; less pronounced as compared to WIN-55) | sensitivity pattern of the MM cell lines [2] | cell viability of all MM cell lines tested as compared to untreated control cells [2] | cell viability of blasts from AML patients (blasts from AML patients) | viability of B-cells (B-cells (CD19+)) | decrease in cell viability of MPCs as compared to control (vehicle-treated) cells ([1]; 50 uM, bone marrow of MM patients) | tumor volume / tumor growth compared to vehicle-treated counterparts (U266 cells) |
| --- | --- | --- | --- | --- | --- | --- | --- |
| CCCC(C)(C)c1ccc2c(c1)OC(C)(C)[C@@H]1CC=C(C)C[C@@H]21 [JWH-133, (6aR,10aR)-3-(1,1-Dimethylbutyl)-6a,7,10,10a-tetrahydro-6,6,9-trimethyl-6H-dibenzo [b,d] pyran] | decreased viability | decreasing from MM1.R, RPMI, MM1.S to U266 | significantly reduced | reduce the cell viability | decreased viability | – | – |
| CS(=O)(=O)O.Cc1c(C(=O)c2cccc3ccccc23)c2cccc3c2n1[C@H](CN1CCOCC1)CO3 [WIN-55, (R)-(+)-[2,3-dihydro-5-methyl-3-(4-morpholinylmethyl)-pyrrolo-[1,2,3]-1,4-benzoxazin-6-yl]-1-naphthalenylmethanone mesylate] | – | MM1R and RPMI were the most sensitive | significantly reduced | reduce the cell viability | decreased viability | up to 85% | inhibit tumor growth |
